According to patent US6831199B1, “Pyrimidine compounds and derivatives thereof” (G. D. Searle & Co., priority 1995, dated 2004):
Where a name gives a salt, the structure may show the parent alone.

Experiments:
[1] = target: T1, Human vitronectin receptor (αvβ3) (Homo sapiens, UniProt P05106+P06756); test: Vitronectin adhesion assay (solid phase receptor assay, competition with biotinylated vitronectin); format: binding; conditions: read-out: AvB3 IC50
T1 construct: Human vitronectin receptor (αvβ3) was purified from human placenta; from tissue; host or cells: human placenta
Procedure, shortened: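 Purified human αvβ3 coated overnight at 4 °C in TBS with 1.0 mM Ca++, Mg++, Mn++, pH 7.4; compounds (top final 1.0×10^−4 M) competed with 1 nM biotinylated vitronectin for 2 h at room temperature. Bound ligand detected by HRP anti-biotin/OPD at A450; values normalized to no-competitor controls, four-parameter curve fit.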

[2] = target: T2, Human fibrinogen receptor (αIIbβ3) (Homo sapiens, UniProt P05106+P08514); test: Purified IIb/IIIa receptor assay (solid phase receptor assay, competition with biotinylated vitronectin); format: binding; conditions: read-out: IIb/IIIa IC50
T2 construct: Human fibrinogen receptor (αIIbβ3) was purified from outdated platelets; from tissue; host or cells: outdated human platelets
Procedure, shortened: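 Competition format: 1 nM biotinylated vitronectin plus test compound (highest 1.0×10^−4 M), 2 h at room temperature on wells coated with platelet-derived αIIbβ3. Buffer was TBS containing 1.0 mM Ca, Mg, Mn, pH 7.4. HRP anti-biotin readout at 450 nm; normalized to maximum binding, four-parameter curve fit.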

Row | Compound | IC50 [1] | IC50 [2]
1 | CCOC(=O)NC(=N)Nc1cccc(C(=O)NCC(=O)NC(CC(=O)O)c2cc(Cl)cc(Cl)c2)c1 (stereo not drawn) [Example 241, 3,5-dichloro-β-[[2-[[[3-[[[(ethoxycarbonyl)amino]iminomethyl]amino]phenyl]carbonyl]amino]acetyl]amino]benzenepropanoic acid, trifluoroacetate salt, monohydrate] | 0.557 µM | 17.2 µM
2 | N=C(N)Nc1cc(C(=O)NCC(=O)NC(CC(=O)O)c2cc(Br)cc(Br)c2)cc(C(F)(F)F)c1 (racemic) [Example 213, (±)β-[[2-[[[3-[(aminoiminomethyl)amino]-5-(trifluoromethyl)phenyl]carbonyl]amino]acetyl]amino]-3,5-dibromobenzenepropanoic acid, trifluoroacetate salt] | 0.00293 µM | 0.334 µM
3 | CCOC(=O)NC(=S)Nc1cccc(C(=O)NCC(=O)NC(CC(=O)O)c2cc(Cl)cc(Cl)c2)c1 (stereo not drawn) [Example 240, 3,5-dichloro-β-[[2-[[[3-[[[(ethoxycarbonyl)amino]thioxomethyl]amino]phenyl]carbonyl]amino]acetyl]amino]benzenepropanoic acid] | 49.4 µM | 76.4 µM
4 | C/N=C(/Nc1cccc(C(=O)NCC(=O)NC(CC(=O)O)c2ccc(F)cc2)c1)NC(C)C (racemic) [Example 298, (±)4-fluoro-β-[[2-[[[3-[[[(1-methylethyl)amino](methylimino)methyl]amino]phenyl]carbonyl]amino]acetyl]amino]benzenepropanoic acid, trifluoroacetate salt] | 0.252 µM | 5.56 µM
5 | CC(NC(=O)c1cccc(NC(=N)N)c1)C(=O)NC(CC(=O)O)c1cccnc1 (stereo not drawn) [Example 82, β-[[2-[[[3-[(aminoiminomethyl)amino]phenyl]carbonyl]amino]-1-oxopropyl]amino]pyridine-3-propanoic acid, bis(trifluoroacetate)salt] | 0.334 µM | 0.353 µM
6 | N=C(N)Nc1cccc(C(=O)NCC(=O)NC(CC(=O)O)c2cc(Br)cc(I)c2)c1 (racemic) [Example 219, (±)β-[[2-[[[3-[(aminoiminomethyl)amino]phenyl]carbonyl]amino]acetyl]amino]-3-bromo-5-iodobenzenepropanoic acid trifluoroacetate salt] | 0.00229 µM | 0.253 µM
7 | N=C(N)Nc1cccc(C(=O)NCC(=O)NC(CC(=O)O)C2CCCCC2)c1 (racemic) [Example 229, (±)β-[[2-[[[3-[(aminoiminomethyl)amino]phenyl]carbonyl]amino]acetyl]amino]cyclohexanepropanoic acid, trifluoroacetate salt, monohydrate] | 0.0391 µM | 10.6 µM
8 | O=C(O)CC(NC(=O)CNC(=O)c1cccc(NC(=O)NCc2cc(Cl)cc(Cl)c2)c1)c1cccnc1 (stereo not drawn) [Example 273, β-[[2-[[[3-[[[[(3,5-dichlorophenyl)methyl]amino]carbonylamino]phenyl]carbonyl]amino]acetyl]amino]pyridine-3-propanoic acid, trifluoroacetate salt] | 0.0129 µM | 4.16 µM
9 | N=C(N)Nc1cccc(C(=O)NCC(=O)NC(CC(=O)O)c2ccc(Cl)s2)c1 (stereo not drawn) [251(C), β-[[2-[[[3-[(aminoiminomethyl)amino]phenyl]carbonyl]amino]acetyl]amino]-5-chlorothiophene-2-propanoic acid, trifluoroacetate salt] | 0.00076 µM | 0.124 µM
10 | N=C(N)Nc1cc(C(=O)O)cc(C(=O)NCC(=O)NC(CC(=O)O)c2cccnc2)c1 (stereo not drawn) [Example 289, β-[[2-[[[3-[(aminoiminomethyl)amino]-5-carboxyphenyl]carbonyl]amino]acetyl]amino]pyridine-3-propanoic acid, bis(trifluoroacetate)salt] | 0.0009 µM | 0.621 µM
11 | CCC(CC(=O)O)NC(=O)CNC(=O)c1cccc(NC(=N)N)c1 (centres unmarked) [Example 264, 3-[[2-[[[3-[(aminoiminomethyl)amino]phenyl]carbonyl]amino]acetyl]amino]pentanoic acid, trifluoroacetate salt] | 0.00218 µM | 0.574 µM
12 | N=C(N)Nc1cccc(C(=O)NCC(=O)NC(CC(=O)O)c2cc(F)cc(C(F)(F)F)c2)c1 (racemic) [Example 208, (±)β-[[2-[[[3-[(aminoiminomethyl)amino]phenyl]carbonyl]amino]acetyl]amino]-3-fluoro-5-(trifluoromethyl)benzenepropanoic acid, trifluoroacetate salt] | 0.00115 µM | 0.277 µM
13 | N=C(N)Nc1cccc(C(=O)NC2CCN(CCC(=O)O)C2=O)c1 (racemic) [Example 42, (±)3-[[[3-[(aminoiminomethyl)amino]phenyl]carbonyl]amino]-2-oxopyrrolidine-1-propanoic acid, trifluoroacetate salt] | 0.124 µM | 9.8 µM
14 | O=C(O)CC(NC(=O)CNC(=O)c1cccc(NC2=NCCCN2)c1)c1cc(Cl)cc(Cl)c1O (racemic) [Example 237, (±)3,5-dichloro-2-hydroxy-β-[[2-[[[3-[(1,4,5,6-tetrahydropyrimidin-2-yl)amino]phenyl]carbonyl]amino]acetyl]amino]benzenepropanoic acid, trifluoroacetate salt, monohydrate] | 0.00057 µM | 1.95 µM
15 | O=C(O)CC(NC(=O)CNC(=O)c1cccc(NC2=NCCS2)c1)c1cccnc1 (stereo not drawn) [Example 101, β-[[2-[[[3-[(4,5-dihydrothiazol-2-yl)amino]phenyl]carbonyl]amino]acetyl]amino]pyridine-3-propanoic acid, trifluoroacetate salt] | 1.68 µM | 65.7 µM
16 | N=C(N)Nc1cccc(C(=O)NCC(=O)NC(CC(=O)O)c2cc(F)cc(Br)c2)c1 (racemic) [Example 209, (±)β-[[2-[[[3-[(aminoiminomethyl)amino]phenyl]carbonyl]amino]acetyl]amino]-3-bromo-5-fluorobenzenepropanoic acid, trifluoroacetate salt] | 0.00083 µM | 0.14 µM
17 | Cc1ccc(C(CC(=O)O)NC(=O)CNC(=O)c2cccc(NC(=N)N)c2)s1 (stereo not drawn) [Example 253, β-[[2-[[[3-[(aminoiminomethyl)amino]phenyl]carbonyl]amino]acetyl]amino]-5-methylthiophene-2-propanoic acid, trifluoroacetate salt] | 0.00084 µM | 0.109 µM
18 | ethyl 3S-[[2-[[[3-[[(cyanoimino)(methylamino)methyl]amino]phenyl]carbonyl]amino]acetyl]amino]-4-pentynoate [Example 140] | 4.59 µM | > 100 µM
19 | CC(NC(=O)Nc1cccc(C(=O)NCC(=O)NC(CC(=O)O)c2cccnc2)c1)c1ccccc1 (stereo not drawn) [Example 271, β-[[2-[[[3-[[[(1-phenylethyl)amino]carbonyl]amino]phenyl]carbonyl]amino]acetyl]amino]pyridine-3-propanoic acid, trifluoroacetate salt] | 0.0299 µM | 4.61 µM
20 | CCOC(=O)CC(NC(=O)CNC(=O)c1cccc(NC2=NCCS2)c1)c1cccnc1 (stereo not drawn) [Example 100, ethyl β-[[2-[[[3-[(4,5-dihydrothiazol-2-yl)amino]phenyl]carbonyl]amino]acetyl]amino]pyridine-3-propanoate, trifluoroacetate salt] | 8.56 µM | > 100 µM
21 | CS(=O)(=O)c1cccc(C(CC(=O)O)NC(=O)CNC(=O)c2cccc(NC(=N)N)c2)c1 (stereo not drawn) [Example 247, β-[[2-[[[3-[(aminoiminomethyl)amino]phenyl]carbonyl]amino]acetyl]amino]-3-(methylsulfonyl)benzenepropanoic acid, bis(trifluoroacetate)salt] | 0.00124 µM | 0.417 µM
22 | O=C(O)CC(NC(=O)CNC(=O)c1cccc(NC2=NCCN2)c1)c1cc(C(F)(F)F)cc(C(F)(F)F)c1 (racemic) [Example 179, (±)β-[[2-[[[3-[(4,5-dihydro-1H-imidazol-2-yl)amino]phenyl]carbonyl]amino]acetyl]-amino]-3,5-bis(trifluoromethyl)benzenepropanoic acid, trifluoroacetate salt] | 0.00272 µM | 0.927 µM
23 | CCN/C(=N\C)Nc1cccc(C(=O)NCC(=O)NC(CC(=O)O)c2ccc(F)cc2)c1 (racemic) [Example 297, (±)β-[[2-[[[3-[[(ethylamino)(methylimino)methyl]amino]phenyl]carbonyl]amino]acetyl]amino]-4-fluorobenzenepropanoic acid, trifluoroacetate salt] | 0.0898 µM | 3.92 µM
24 | O=C(O)CC(NC(=O)CNC(=O)c1cccc(NC2=NCCCC2)c1)c1cc(Cl)cc(Cl)c1 (racemic) [Example 205, (±)3,5-dichloro-β-[[2-[[[3-[(2,3,4,5-tetrahydropyridin-6-yl)amino]phenyl]carbonyl]amino]acetyl]amino]benzenepropanoic acid, trifluoroacetate salt] | 0.00168 µM | 1.24 µM
25 | CC(C)Oc1cc(OC(C)C)cc(C(CC(=O)O)NC(=O)CNC(=O)c2cccc(NC(=N)N)c2)c1 (stereo not drawn) [Example 275, β-[[2-[[[3-[(aminoiminomethyl)amino]phenyl]carbonyl]amino]acetyl]amino]-3,5-bis(1-methylethoxy)benzenepropanoic acid, trifluoroacetate salt] | 0.00698 µM | 1.2 µM
